According to publication PMC6202177 (Nature chemical biology, 2018):

Key:
[1] = target: biotinylated TAPBPR (UniProt Q9BX59); assay: SPR
[2] = test system: P18-I10/H2-D^d; assay: SEC binding of TAPBPR; parameters: species or system murine H2-D^d; conditions: fully-loaded P18-I10/H2-D^d, in words
[3] = test system: RGPGC/H2-D^d S73C; assay: SEC binding of TAPBPR; parameters: species or system murine H2-D^d; conditions: partially loaded RGPGC/H2-D^d S73C, in words
[4] = test system: […]/HLA-B*15:01/hβ2m; assay: SEC binding of TAPBPR; parameters: species or system human
[5] = test system: […]/HLA-A*01:01/hβ2m; assay: NMR binding of TAPBPR; parameters: species or system human
[6] = test system: P18-I10/H2-D^d/hβ2m; assay: NMR titration and line shape analysis of TAPBPR onto P18-I10/H2-D^d/hβ2m; format: binding, murine H2-D^d, human β2m; conditions: slow exchange on the chemical shift timescale, in words
[7] = test system: peptide-deficient H2-D^d; assay: SEC binding of TAPBPR; parameters: species or system murine H2-D^d; conditions: in words
[8] = test system: […]/HLA-B*27:02/hβ2m; assay: SEC binding of TAPBPR; parameters: species or system human
[9] = target: peptide-deficient H2-D^d/hβ2m/TAPBPR complex (murine | human | not stated); assay: NMR titration
[10] = target: peptide-deficient H2-D^d/hβ2m/TAPBPR complex (murine | human | not stated); assay: fluorescence polarisation
[11] = target: peptide-deficient H2-D^d/hβ2m/TAPBPR (Mus musculus, UniProt P01900); assay: Fluorescence anisotropy competition with TAMRA-P18-I10; format: binding, murine H2-D^d, human β2m; conditions: negative control peptide, in words
[12] = target: H2-D^d/TAPBPR (MHC-I/TAPBPR) (Mus musculus, UniProt P01900); assay: Thermodynamic cycle step 4: peptide binding to MHC-I/TAPBPR; parameters: species or system murine H2-D^d, human β2m; conditions: Fig. 6 mechanism, in words
[13] = target: P18-I10/H2-D^d/hβ2m (murine | human | HIV); assay: NMR titration

H2-D^(d S73C)/β2m (complex)
koff [1]: < 0.002 s⁻¹

TAPBPR: molecular chaperone, TAP-binding protein related; luminal domain expressed in Drosophila S2 cells
TAPBPR binding (SEC) [2]: high-affinity complex
TAPBPR binding (SEC) [3]: high-affinity complex
TAPBPR binding (SEC) ([4]; 80 μM pMHC-I, 160 μM TAPBPR, room temperature 1 hour, HLA-B*15:01): No TAPBPR binding could be detected
koff implied if an interaction exists ([4]; HLA-B*15:01, inferred from lack of detectable binding (≫)): > 3 s⁻¹
TAPBPR binding (NMR) ([5]; 200 µM pMHC-I, two-fold molar excess TAPBPR, HLA-A*01:01): No TAPBPR binding could be detected
koff implied if an interaction exists ([5]; HLA-A*01:01, inferred from lack of detectable binding (≫)): > 3 s⁻¹
TAPBPR binding to pMHC-I by NMR [6]: tight complex
TAPBPR binding (SEC) [7]: high-affinity complex
TAPBPR binding (SEC) ([8]; 80 μM pMHC-I, 160 μM TAPBPR, room temperature 1 hour, HLA-B*27:02): No TAPBPR binding could be detected
koff implied if an interaction exists ([8]; HLA-B*27:02, inferred from lack of detectable binding (≫)): > 3 s⁻¹

^13C labeled P18-I10 (peptide)
Kd [9]: < 7.2 µM
koff [9]: < 80 s⁻¹

P18-I10 peptide
K2′ [10]: 0.186 µM
Kd [10]: 0.09 µM

FVTI
stability and exchange in the DSF and FA assays [11]: minimal stability and exchange
affinity class of peptide [12]: low-affinity

B1: TAPBPR (TAP-binding protein related), luminal domain (domain or fragment)
chain: KPHPAEGQWRAVDVVLDCFLAKDGAHRGALASSEDRARASLVLKQVPVLDDGSLEDFTDFQGGTLAQDDPPIIFEASVDLVQIPQAEALLHADCSGKEVTCEISRYFLQMTETTVKTAAWFMANMQVSGGGPSISLVMKTPRVTKNEALWHPTLNLPLSPQGTVRTAVEFQVMTQTQSLSFLLGSSASLDCGFSMAPGLDLISVEWRLQHKGRGQLVYSWTAGQGQAVRKGATLEPAQLGMARDASLTLPGLTIQDEGTYICQITTSLYRAQQIIQLNIQASPKVRLSLANEALLPTLICDIAGYYPLDVVVTWTREELGGSPAQVSGASFSSLRQSVAGTYSISSSLTAEPGSAGATYTCQVTHISLEEPLGASTQVVPPERR
Kd [13]: 32 µM
